Our source for the IC50 values is patent publication US10696655B2, “Therapeutic compounds and uses thereof” (GENENTECH, INC., priority 2017, dated 2020).

The target in this test is CBP (Homo sapiens (Human), UniProt Q92793). Kind of test: CBP TR-FRET binding assay.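 Note: displacement of a biotinylated small-molecule ligand from purified recombinant CBP read by TR-FRET, DMSO-only wells as control, IC50 from nonlinear curve fit.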 As to conditions: His/Flag tagged CBP 4 nM, biotin-ligand 60 nM; read-out: CBP HTRF IC50.
Chain of CBP (Q92793 whole entry): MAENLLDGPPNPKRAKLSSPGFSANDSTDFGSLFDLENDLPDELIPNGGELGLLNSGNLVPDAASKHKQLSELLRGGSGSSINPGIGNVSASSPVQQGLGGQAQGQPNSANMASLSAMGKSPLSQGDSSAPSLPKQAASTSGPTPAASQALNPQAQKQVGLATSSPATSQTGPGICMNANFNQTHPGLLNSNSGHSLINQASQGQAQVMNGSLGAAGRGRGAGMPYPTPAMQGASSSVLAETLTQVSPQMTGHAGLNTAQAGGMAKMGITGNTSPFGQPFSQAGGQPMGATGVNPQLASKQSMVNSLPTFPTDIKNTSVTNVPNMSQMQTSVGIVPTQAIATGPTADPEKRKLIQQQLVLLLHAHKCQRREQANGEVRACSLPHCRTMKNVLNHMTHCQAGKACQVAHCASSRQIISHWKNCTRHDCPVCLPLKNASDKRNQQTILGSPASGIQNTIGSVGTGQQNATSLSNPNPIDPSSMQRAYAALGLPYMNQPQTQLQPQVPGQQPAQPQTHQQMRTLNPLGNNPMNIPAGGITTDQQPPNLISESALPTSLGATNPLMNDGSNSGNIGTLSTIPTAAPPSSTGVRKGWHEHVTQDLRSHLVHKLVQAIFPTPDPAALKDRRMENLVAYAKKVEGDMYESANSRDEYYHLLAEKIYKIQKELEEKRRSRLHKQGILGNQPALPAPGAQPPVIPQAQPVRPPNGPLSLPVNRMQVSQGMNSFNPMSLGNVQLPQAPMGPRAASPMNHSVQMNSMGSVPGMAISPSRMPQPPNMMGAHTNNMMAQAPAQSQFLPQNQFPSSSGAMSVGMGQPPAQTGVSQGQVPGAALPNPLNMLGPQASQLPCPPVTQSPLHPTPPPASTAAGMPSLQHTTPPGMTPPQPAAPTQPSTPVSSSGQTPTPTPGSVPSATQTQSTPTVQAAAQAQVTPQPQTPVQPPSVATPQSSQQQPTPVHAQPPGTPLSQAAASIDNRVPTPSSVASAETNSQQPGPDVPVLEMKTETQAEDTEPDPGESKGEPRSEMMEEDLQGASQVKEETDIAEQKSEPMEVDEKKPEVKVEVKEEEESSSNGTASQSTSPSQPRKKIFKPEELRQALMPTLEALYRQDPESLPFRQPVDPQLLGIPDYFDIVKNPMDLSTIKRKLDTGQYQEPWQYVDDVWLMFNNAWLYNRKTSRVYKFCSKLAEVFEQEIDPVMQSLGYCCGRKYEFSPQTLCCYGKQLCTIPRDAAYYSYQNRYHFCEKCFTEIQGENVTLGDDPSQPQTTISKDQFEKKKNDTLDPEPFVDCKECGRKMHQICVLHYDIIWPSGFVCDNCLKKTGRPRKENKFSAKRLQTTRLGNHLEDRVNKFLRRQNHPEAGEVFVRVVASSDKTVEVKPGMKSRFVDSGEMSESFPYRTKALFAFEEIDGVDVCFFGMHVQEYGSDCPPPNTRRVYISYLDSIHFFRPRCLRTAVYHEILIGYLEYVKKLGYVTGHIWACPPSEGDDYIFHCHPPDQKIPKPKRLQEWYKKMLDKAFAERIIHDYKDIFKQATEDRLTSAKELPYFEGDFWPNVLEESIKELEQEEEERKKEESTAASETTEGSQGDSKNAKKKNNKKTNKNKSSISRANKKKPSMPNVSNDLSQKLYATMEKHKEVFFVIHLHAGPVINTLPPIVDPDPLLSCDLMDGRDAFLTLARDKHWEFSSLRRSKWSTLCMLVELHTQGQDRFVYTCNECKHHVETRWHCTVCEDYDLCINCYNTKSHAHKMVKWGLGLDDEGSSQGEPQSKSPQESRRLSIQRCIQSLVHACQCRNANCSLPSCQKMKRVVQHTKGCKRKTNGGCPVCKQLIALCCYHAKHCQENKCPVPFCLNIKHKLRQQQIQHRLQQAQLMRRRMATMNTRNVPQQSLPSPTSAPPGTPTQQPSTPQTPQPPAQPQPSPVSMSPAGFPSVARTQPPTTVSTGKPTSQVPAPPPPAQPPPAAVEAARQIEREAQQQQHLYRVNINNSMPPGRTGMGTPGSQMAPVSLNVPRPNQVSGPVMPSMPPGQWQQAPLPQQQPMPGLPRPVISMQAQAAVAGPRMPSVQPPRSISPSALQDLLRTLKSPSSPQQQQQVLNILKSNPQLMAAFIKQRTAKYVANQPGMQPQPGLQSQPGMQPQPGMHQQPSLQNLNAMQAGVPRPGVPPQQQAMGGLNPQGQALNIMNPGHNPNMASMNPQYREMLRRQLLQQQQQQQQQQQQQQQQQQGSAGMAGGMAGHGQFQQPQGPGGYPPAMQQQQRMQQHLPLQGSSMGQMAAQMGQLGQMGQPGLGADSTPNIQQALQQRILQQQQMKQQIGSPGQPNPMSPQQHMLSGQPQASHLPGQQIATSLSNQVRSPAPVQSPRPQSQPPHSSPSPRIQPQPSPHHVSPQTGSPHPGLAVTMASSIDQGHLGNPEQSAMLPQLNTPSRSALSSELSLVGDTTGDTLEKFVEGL
In the case of `CC1C(=O)N(C)c2cc(N3CCCc4cc(-c5cnn(C)c5)c(C(F)F)cc43)ccc21` (stereo in doubt) [Example 92, (R)-6-[7-(difluoromethyl)-6-(1-methylpyrazol-4-yl)-3,4-dihydro-2H-quinolin-1-yl]-1,3-dimethyl-indolin-2-one], the half-inhibitory concentration (IC50) came out at 0.042 µM.
Take `CNC(=O)c1c[nH]c2cnc(N3CCCc4cc(-c5cnn(C)c5)c(C(F)F)cc43)nc12` [Example 70]: the IC50 worked out at 0.018 µM.
Take `Cn1cc(-c2cc3cccc(-c4ccc5c(c4)n(C)c(=O)n5C)c3cn2)cn1` [Example 94, 1,3-dimethyl-5-(3-(1-methyl-1H-pyrazol-4-yl)isoquinolin-8-yl)-1H-benzo[d]imidazol-2(3H)-one]: the half-inhibitory concentration (IC50) was found to be 0.09 µM.
For `Cn1cc(-c2cc3c(cc2C(F)F)N(c2cc(N4CCCCC4)c4c(c2)n(C)c(=O)n4C)CCC3)cn1` [Example 44] the value was 0.026 µM; for `Cn1cc(-c2cc3c(cc2C(F)F)N(c2cnc4c(c2)n(C)c(=O)n4C)CCC3)cn1` [Example 25], 0.038 µM.
Under `CNC(=O)N1CCOc2ccc(-c3cccc4[nH]ncc34)cc2C1` [Example 14] stands 0.102 µM; under `CCn1c(=O)n(C)c2cc(N3CCCc4cc(-c5cnn(C)c5)c(C(F)F)cc43)ccc21` [Example 31, 5-[7-(difluoromethyl)-6-(1-methylpyrazol-4-yl)-3,4-dihydro-2H-quinolin-1-yl]-1-ethyl-3-methyl-benzimidazol-2-one], 0.172 µM.
Under `CN1C(=O)CCc2ccc(N3CCCc4cc(-c5cnn(C)c5)c(C(F)F)cc43)cc21` [Example 19] stands 0.033 µM.
Consider `CC1C(=O)N(C)c2cc(N3CCCc4cc(-c5cnn(C)c5)c(C(F)F)cc43)ccc21` (stereo in doubt) [Example 93, (S)-6-[7-(difluoromethyl)-6-(1-methylpyrazol-4-yl)-3,4-dihydro-2H-quinolin-1-yl]-1,3-dimethyl-indolin-2-one], for which the IC50 was determined as 0.095 µM.
For `CNC(=O)N1CCOc2ccc(-c3cncc4ccccc34)cc2C1` [Example 11] the value was 0.281 µM; for `CNC(=O)c1coc2ccc(N3CCCc4cc(-c5cnn(C)c5)c(C(F)F)cc43)cc12` [Example 73, 5-(7-(difluoromethyl)-6-(1-methyl-1H-pyrazol-4-yl)-3,4-dihydroquinolin-1(2H)-yl)-N-methylbenzofuran-3-carboxamide], 0.08 µM; for `CNC(=O)c1ccc2cncc(N3CCCc4cc(-c5cnn(C)c5)c(C(F)F)cc43)c2c1` [Example 119, 4-(7-(difluoromethyl)-6-(1-methyl-1H-pyrazol-4-yl)-3,4-dihydroquinolin-1(2H)-yl)-N-methylisoquinoline-6-carboxamide], 0.034 µM.
In the case of `CNC(=O)N1CCOc2ccc(-c3cccc4cn[nH]c34)cc2C1` [Example 15], the IC50 is 0.391 µM.
Under `COC(=O)c1ccc2nccc(N3CCCc4cc(-c5cnn(C)c5)ccc43)c2c1` [Example 28] stands 0.199 µM; under `CN1Cc2c(cccc2N2CCCc3cc(-c4cnn(C)c4)c(C(F)F)cc32)NC1=O` [Example 116, 5-(7-(difluoromethyl)-6-(1-methyl-1H-pyrazol-4-yl)-3,4-dihydroquinolin-1(2H)-yl)-3-methyl-3,4-dihydroquinazolin-2(1H)-one], 0.026 µM.
For `CNC(=O)Nc1cccc(N2CCCc3cc(-c4cnn(C)c4)c(C(F)F)cc32)n1` [Example 122, 1-(6-(7-(difluoromethyl)-6-(1-methyl-1H-pyrazol-4-yl)-3,4-dihydroquinolin-1(2H)-yl)pyridin-2-yl)-3-methylurea] the value was 0.088 µM; for `C#Cc1cc2c(cc1N1CCCc3cc(-c4cnn(C)c4)c(C(F)F)cc31)n(C)c(=O)n2C` [Example 102, 5-(7-(difluoromethyl)-6-(1-methyl-1H-pyrazol-4-yl)-3,4-dihydroquinolin-1(2H)-yl)-6-ethynyl-1,3-dimethyl-1H-benzo[d]imidazol-2(3H)-one], 0.021 µM.
In the case of `C[C@H]1Oc2c(cccc2N2CCCc3cc(-c4cnn(C)c4)c(C(F)F)cc32)NC1=O` [Example 115, (R)-8-(7-(difluoromethyl)-6-(1-methyl-1H-pyrazol-4-yl)-3,4-dihydroquinolin-1(2H)-yl)-2-methyl-2H-benzo[b][1,4]oxazin-3(4H)-one], the 50% inhibitory concentration (IC50) was 0.077 µM.
Under `CNC(=O)c1cnc2ccc(N3CCCc4cc(-c5cnn(C)c5)c(C(F)F)cc43)nn12` [Example 72, 6-(7-(difluoromethyl)-6-(1-methyl-1H-pyrazol-4-yl)-3,4-dihydroquinolin-1(2H)-yl)-N-methylimidazo[1,2-b]pyridazine-3-carboxamide] stands 0.11 µM; under `CNC(=O)c1ccc2c(n1)c(N1CCCc3cc(-c4cnn(C)c4)c(C(F)F)cc31)nn2C1CCOCC1` [Example 125, 3-(7-(difluoromethyl)-6-(1-methyl-1H-pyrazol-4-yl)-3,4-dihydroquinolin-1(2H)-yl)-N-methyl-1-(tetrahydro-2H-pyran-4-yl)-1H-pyrazolo[4,3-b]pyridine-5-carboxamide], 0.002 µM; under `Cn1cc(-c2cc3c(cc2C(F)F)N(c2ccc4c(c2)sc(=O)n4C)CCC3)cn1` [Example 22], 1.69 µM.
With `CC(=O)N1CCCc2cc(N3CCCc4cc(-c5cnn(C)c5)c(C(F)F)cc43)ccc21` [Example 87, 1-[6-[7-(difluoromethyl)-6-(1-methylpyrazol-4-yl)-3,4-dihydro-2H-quinolin-1-yl]-3,4-dihydro-2H-quinolin-1-yl]ethanone], the IC50 was 0.429 µM.
Under `CNC(=O)N1CCOc2c(cc(-c3ccccc3C)cc2C(C)C)C1` [Example 110, 9-isopropyl-N-methyl-7-(o-tolyl)-2,3-dihydrobenzo[f][1,4]oxazepine-4(5H)-carboxamide] stands 0.201 µM; under `CNC(=O)N1CCOc2ccc(-c3cccc4nc(-c5ccc(OC)cc5)cn34)cc2C1` [Example 86, 7-[2-(4-methoxyphenyl)imidazo[1,2-a]pyridin-5-yl]-N-methyl-3,5-dihydro-2H-1,4-benzoxazepine-4-carboxamide], 0.081 µM.
Under `CNC(=O)c1cnn2ccc(N3CCCc4cc(-c5cnn(C)c5)c(C(F)F)cc43)cc12` [Example 30] stands 0.543 µM; under `CNC(=O)[C@H]1CCc2ccc(N3CCCc4cc(-c5cnn(C)c5)c(C(F)F)cc43)nc21` [Example 117, (S)-2-(7-(difluoromethyl)-6-(1-methyl-1H-pyrazol-4-yl)-3,4-dihydroquinolin-1(2H)-yl)-N-methyl-6,7-dihydro-5H-cyclopenta[b]pyridine-7-carboxamide], 0.04 µM; under `CNC(=O)c1c[nH]c2ccc(N3CCCc4cc(-c5cnn(C)c5)ccc43)cc12` [Example 53], 0.048 µM.
Under `CNC(=O)N1CCOc2ccc(-c3nc(N)cc4cnccc34)cc2C1` [Example 2] stands 0.321 µM; under `CNC(=O)C1CCc2c(c(N3CCCc4cc(-c5cnn(C)c5)c(C(F)F)cc43)nn2C2CCOCC2)C1` (stereo not drawn) [Example 126, 3-(7-(difluoromethyl)-6-(1-methyl-1H-pyrazol-4-yl)-3,4-dihydroquinolin-1(2H)-yl)-N-methyl-1-(tetrahydro-2H-pyran-4-yl)-4,5,6,7-tetrahydro-1H-indazole-5-carboxamide], 0.184 µM; under `CNC(=O)N1CCOc2ccc(-c3ccc4[nH]ccc4c3)cc2C1` [Example 13], 0.267 µM.
